# Values of other authors in publication PMC8036510, “The Inhibitory Effects of Plant Derivate Polyphenols on the Main Protease of SARS Coronavirus 2 and Their Structure–Activity Relationship” (Molecules, 2021).
# Legend:
# M^pro [1] = test system: M^pro; parameters: method as in PMID 32963564; conditions: 37 °C for 5 h, same substrate
# M^pro [2] = test system: M^pro; parameters: method as in PMID 33022015; conditions: substrate MCA-AVLQSGFR-K(Dnp)-K-NH2
Compound,IC50 on M^pro (M^pro [1]),IC50 (M^pro [2])
"O=C(O[C@@H]1Cc2c(O)cc(O)cc2O[C@@H]1c1cc(O)c(O)c(O)c1)c1cc(O)c(O)c(O)c1 [Epigallocatechin gallate (EGCG), Epigallocatechin gallate]",7.6 µg/mL,
O=C(OC[C@H]1O[C@@H](OC(=O)c2cc(O)c(O)c(OC(=O)c3cc(O)c(O)c(O)c3)c2)[C@H](OC(=O)c2cc(O)c(O)c(OC(=O)c3cc(O)c(O)c(O)c3)c2)[C@@H](OC(=O)c2cc(O)c(O)c(OC(=O)c3cc(O)c(O)c(O)c3)c2)[C@@H]1OC(=O)c1cc(O)c(O)c(OC(=O)c2cc(O)c(O)c(O)c2)c1)c1cc(O)c(O)c(OC(=O)c2cc(O)c(O)c(O)c2)c1 [Tannic acid],,2100 nM
